# System: Balb/c splenic B cells
# Assay: B cell activation and proliferation assay (Alamar Blue)
# Format: cell-based
# Conditions: Mus musculus, read-out: B cell proliferation EC50
row,SMILES,EC50 [nM]
1,Cc1cccc2cc(Cn3cnc4c(N)ncnc43)n(-c3ccccc3F)c(=O)c12 [Compound 1],< 10000
2,Cc1cccc2cc(Cn3nc(I)c4c(N)ncnc43)n(-c3ccccc3F)c(=O)c12 [Compound 2],< 10000
3,Cc1cccc2cc(Cn3nc(-c4cc(O)cc(F)c4)c4c(N)ncnc43)n(-c3ccccc3F)c(=O)c12 [Compound 3],< 100
4,Cc1cccc2cc(Cn3nc(C#CC4CC4)c4c(N)ncnc43)n(-c3ccccc3F)c(=O)c12 [Compound 4],< 1000
5,Cc1ccccc1-n1c(Cn2cnc3c(N)ncnc32)cc2cccc(C)c2c1=O [Compound 5],< 10000
6,Cc1cccc2cc(Cn3nc(C#CCO)c4c(N)ncnc43)n(-c3ccccc3F)c(=O)c12 [Compound 8],< 1000
7,Cc1cccc2cc(Cn3nc(-c4ccc(F)c(O)c4)c4c(N)ncnc43)n(-c3ccccc3F)c(=O)c12 [Compound 9],< 1000
8,Cc1cccc2cc(Cn3nc(-c4cccc(O)c4)c4c(N)ncnc43)n(-c3ccccc3F)c(=O)c12 [Compound 10],< 1000
9,Cc1ccccc1-n1c(Cn2nc(C#CCO)c3c(N)ncnc32)cc2cccc(C)c2c1=O [Compound 11],< 1000
10,Cc1ccccc1-n1c(Cn2nc(-c3ccc(F)c(O)c3)c3c(N)ncnc32)cc2cccc(C)c2c1=O [Compound 12],< 100
11,Cc1ccccc1-n1c(Cn2nc(C#CC3CC3)c3c(N)ncnc32)cc2cccc(C)c2c1=O [Compound 14],< 1000
12,Cc1cccnc1-n1c(Cn2nc(I)c3c(N)ncnc32)cc2cccc(C)c2c1=O [Compound 15],< 1000
13,Cc1cccnc1-n1c(Cn2nc(-c3cc(O)cc(F)c3)c3c(N)ncnc32)cc2cccc(C)c2c1=O [Compound 16],< 100
14,Cc1cccnc1-n1c(Cn2nc(Br)c3c(N)ncnc32)cc2cccc(C)c2c1=O [Compound 17],< 100
15,Cc1cccnc1-n1c(Cn2nc(Cl)c3c(N)ncnc32)cc2cccc(C)c2c1=O [Compound 18],< 1000
16,Cc1ccccc1-n1c(Cn2nc(Br)c3c(N)ncnc32)cc2cccc(C)c2c1=O [Compound 19],< 1000
17,Cc1ccccc1-n1c(Cn2nc(Cl)c3c(N)ncnc32)cc2cccc(C)c2c1=O [Compound 20],< 1000
18,COc1cc(-c2nn(Cc3cc4cccc(C)c4c(=O)n3-c3ccccc3C)c3ncnc(N)c23)ccc1Cl [Compound 21],< 1000
19,COc1cc(-c2nn(Cc3cc4cccc(C)c4c(=O)n3-c3ccccc3F)c3ncnc(N)c23)ccc1Cl [Compound 22],< 10000
20,Cc1ccccc1-n1c(Cn2nc(-c3ccc(Cl)c(O)c3)c3c(N)ncnc32)cc2cccc(C)c2c1=O [Compound 23],< 100
21,Cc1cccc2cc(Cn3nc(-c4ccc(Cl)c(O)c4)c4c(N)ncnc43)n(-c3ccccc3F)c(=O)c12 [Compound 24],< 1000
22,Cc1ccccc1-n1c(Cn2nc(-c3ccc(O)c(Cl)c3)c3c(N)ncnc32)cc2cccc(C)c2c1=O [Compound 25],< 1000
23,Cc1cccc2cc(Cn3nc(-c4ccc(O)c(Cl)c4)c4c(N)ncnc43)n(-c3ccccc3F)c(=O)c12 [Compound 26],< 10000
24,Cc1ccccc1-n1c(Cn2nc(-c3ccc(F)cc3)c3c(N)ncnc32)cc2cccc(C)c2c1=O [Compound 27],< 10000
25,Cc1cccc2cc(Cn3nc(C#C[C@@H](C)O)c4c(N)ncnc43)n(-c3ccccc3F)c(=O)c12 [Compound 28],< 1000

row,SMILES,EC50 [nM]
1,Cc1cccc2cc(Cn3nc(-c4ccc(O)c(F)c4)c4c(N)ncnc43)n(-c3ccccc3F)c(=O)c12 [Compound 29],< 1000
2,Cc1ccccc1-n1c(Cn2nc(-c3ccc(O)c(F)c3)c3c(N)ncnc32)cc2cccc(C)c2c1=O [Compound 30],< 1000
3,Cc1ccccc1-n1c(Cn2nc(I)c3c(N)ncnc32)cc2ccccc2c1=O [Compound 31],< 1000
4,Cc1ccccc1-n1c(Cn2nc(C#C[C@@H](C)O)c3c(N)ncnc32)cc2ccccc2c1=O [Compound 32],< 1000
5,Cc1cccc2cc(Cn3nc(Cl)c4c(N)ncnc43)n(-c3ccccc3F)c(=O)c12 [Compound 34],< 1000
6,Cc1cccc2cc(Cn3nc(Br)c4c(N)ncnc43)n(-c3ccccc3F)c(=O)c12 [Compound 35],< 1000
7,Cc1ccccc1-n1c(Cn2nc(-c3ccc(O)cc3)c3c(N)ncnc32)cc2cccc(C)c2c1=O [Compound 36],< 1000
8,Cc1ccccc1-n1c(Cn2nc(C#C[C@@H](C)O)c3c(N)ncnc32)cc2cccc(C)c2c1=O [Compound 37],< 100
9,Cc1cccc2cc(Cn3nc(-c4cccc(Cl)c4)c4c(N)ncnc43)n(-c3ccccc3F)c(=O)c12 [Compound 38],> 10000
10,Cc1ccccc1-n1c(Cn2nc(-c3cccc(Cl)c3)c3c(N)ncnc32)cc2cccc(C)c2c1=O [Compound 39],< 10000
11,Cc1cccc2cc(Cn3nc(-c4cccc(F)c4)c4c(N)ncnc43)n(-c3ccccc3F)c(=O)c12 [Compound 40],< 10000
12,Cc1ccccc1-n1c(Cn2nc(-c3cccc(F)c3)c3c(N)ncnc32)cc2cccc(C)c2c1=O [Compound 41],< 1000
13,Cc1ccccc1-n1c(Cn2nc(I)c3c(N)ncnc32)cc2cccc(F)c2c1=O [Compound 42],< 1000
14,Cc1ccccc1-n1c(Cn2nc(C#C[C@@H](C)O)c3c(N)ncnc32)cc2cccc(F)c2c1=O [Compound 43],< 10000
15,COc1ccc(-c2nn(Cc3cc4cccc(C)c4c(=O)n3-c3ccccc3C)c3ncnc(N)c23)cc1OC [Compound 44],< 100
16,COc1ccc(-c2nn(Cc3cc4cccc(C)c4c(=O)n3-c3ccccc3C)c3ncnc(N)c23)cc1 [Compound 45],< 1000
17,Cc1cccc2cc(Cn3nc(-c4ccc(O)cc4)c4c(N)ncnc43)n(-c3ccccc3F)c(=O)c12 [Compound 46],< 1000
18,COc1ccc(-c2nn(Cc3cc4cccc(C)c4c(=O)n3-c3ccccc3F)c3ncnc(N)c23)cc1OC [Compound 47],< 1000
19,Cc1ccccc1-n1c(Cn2nc(-c3cnc4[nH]ccc4c3)c3c(N)ncnc32)cc2cccc(C)c2c1=O [Compound 48],< 100
20,Cc1ccccc1-n1c(Cn2nc(-c3ccc(Cl)cc3)c3c(N)ncnc32)cc2cccc(C)c2c1=O [Compound 49],< 10000
21,Cc1ccccc1-n1c(Cn2nc(-c3ccc4cc[nH]c4c3)c3c(N)ncnc32)cc2cccc(C)c2c1=O [Compound 50],< 1000
22,Cc1ccccc1-n1c(Cn2nc(-c3cccc(O)c3)c3c(N)ncnc32)cc2ccccc2c1=O [Compound 51],< 1000
23,Cc1ccccc1-n1c(Cn2nc(-c3ccc(F)c(O)c3)c3c(N)ncnc32)cc2ccccc2c1=O [Compound 54],< 100
24,Cc1ccccc1-n1c(Cn2nc(-c3cc(O)cc(F)c3)c3c(N)ncnc32)cc2cccc(F)c2c1=O [Compound 55],< 100
25,Cc1cccc2cc(Cn3nc(I)c4c(N)ncnc43)n(C3CCCC3)c(=O)c12 [Compound 57],< 10000

row,SMILES,EC50 [nM]
1,Cc1cccc2cc(Cn3nc(C#C[C@@H](C)O)c4c(N)ncnc43)n(C(C)C)c(=O)c12 [Compound 61],< 1000
2,Cc1cccc2cc(Cn3nc(-c4cccc(O)c4)c4c(N)ncnc43)n(C(C)C)c(=O)c12 [Compound 62],< 100
3,Cc1cccc2cc(Cn3nc(-c4cc(O)cc(F)c4)c4c(N)ncnc43)n(C3CCCC3)c(=O)c12 [Compound 63],< 100
4,Cc1cccc2cc(Cn3nc(-c4cc(O)cc(F)c4)c4c(N)ncnc43)n(C(C)C)c(=O)c12 [Compound 66],< 100
5,Cc1cccc2cc(Cn3nc(-c4ccc(F)c(O)c4)c4c(N)ncnc43)n(C(C)C)c(=O)c12 [Compound 67],< 100
6,Cc1cccnc1-n1c(Cn2nc(-c3ccc(F)c(O)c3)c3c(N)ncnc32)cc2cccc(C)c2c1=O [Compound 68],< 100
7,Cc1cccnc1-n1c(Cn2nc(C#C[C@@H](C)O)c3c(N)ncnc32)cc2cccc(C)c2c1=O [Compound 69],< 1000
8,COc1ccccc1-n1c(Cn2nc(I)c3c(N)ncnc32)cc2cccc(C)c2c1=O [Compound 70],< 1000
9,Cc1cccc2cc(Cn3nc(-c4ccc(Cl)c(O)c4)c4c(N)ncnc43)n(C3CCCC3)c(=O)c12 [Compound 71],< 10000
10,Cc1cccnc1-n1c(Cn2nc(-c3ccc(Cl)c(O)c3)c3c(N)ncnc32)cc2cccc(C)c2c1=O [Compound 72],< 100
11,Cc1cccnc1-n1c(Cn2nc(-c3cccc(O)c3)c3c(N)ncnc32)cc2cccc(C)c2c1=O [Compound 73],< 100
12,COc1ccccc1-n1c(Cn2nc(-c3cccc(O)c3)c3c(N)ncnc32)cc2cccc(C)c2c1=O [Compound 74],< 100
13,Cc1cccc2cc(Cn3nc(I)c4c(N)ncnc43)n(-c3ccccc3C(C)C)c(=O)c12 [Compound 75],< 100
14,Cc1cccc2cc(Cn3nc(I)c4c(N)ncnc43)n(-c3ccccc3Cl)c(=O)c12 [Compound 76],< 1000
15,CCc1ccccc1-n1c(Cn2nc(I)c3c(N)ncnc32)cc2cccc(C)c2c1=O [Compound 77],< 1000
16,Cc1ccncc1-n1c(Cn2nc(I)c3c(N)ncnc32)cc2cccc(C)c2c1=O [Compound 78],< 1000
17,Cc1cccc2cc(Cn3nc(I)c4c(N)ncnc43)n(-c3ccccc3O)c(=O)c12 [Compound 79],< 1000
18,COc1ccccc1-n1c(Cn2nc(C#C[C@@H](C)O)c3c(N)ncnc32)cc2cccc(C)c2c1=O [Compound 80],< 1000
19,Cc1cccc2cc(Cn3nc(-c4cccc(O)c4)c4c(N)ncnc43)n(-c3ccccc3O)c(=O)c12 [Compound 81],< 100
20,Cc1cccc2cc(Cn3nc(-c4cccc(O)c4)c4c(N)ncnc43)n(-c3ccccc3C(C)C)c(=O)c12 [Compound 82],< 100
21,Cc1cccc2cc(Cn3nc(C#C[C@@H](C)O)c4c(N)ncnc43)n(-c3ccccc3C(C)C)c(=O)c12 [Compound 83],< 100
22,COc1ccccc1-n1c(Cn2nc(-c3cc(O)cc(F)c3)c3c(N)ncnc32)cc2cccc(C)c2c1=O [Compound 84],< 100
23,Cc1ccccc1-n1c(Cn2nc(C#C[C@H](C)O)c3c(N)ncnc32)cc2cccc(C)c2c1=O [Compound 85],< 1000
24,Cc1cccc2cc(Cn3nc(I)c4c(N)ncnc43)n(C3CC3)c(=O)c12 [Compound 86],< 1000
25,Cc1cccc2cc(Cn3nc(I)c4c(N)ncnc43)n(C3CCCCC3)c(=O)c12 [Compound 87],< 10000
